{
  "source": "patent US9044383B1",
  "about": "“Compounds and methods for drug delivery via a human nail” (priority 2013, dated 2015)",
  "origin": "cited, not measured here",
  "key": {"obesity in subjects": {"system": "obesity in subjects", "details": "applied topically on the skin"}, "overweight and obese men": {"system": "overweight and obese men", "details": "taken orally"}},
  "data": [
    {"smiles": "C=C[C@@]1(C)CC(=O)[C@]2(O)[C@@]3(C)[C@@H](O)CCC(C)(C)[C@@H]3[C@H](O)[C@H](OC(C)=O)[C@@]2(C)O1", "note": "[forskolin, 7-beta-acetoxy-8,13-epoxy-1-alpha, 6-beta, 9-alpha-trihydroxylabd-14-en-1′-one]", "values": [
      {"measurement": "decreasing obesity", "setting": "obesity in subjects", "result": "favorable results"},
      {"measurement": "solubility in organic solvents", "setting": "organic solvents such as ethanol, chloroform, and dimethyl surfoxide", "result": "soluble"},
      {"measurement": "solubility in water (with 2% ethanol)", "setting": "water with 2% ethanol, first dissolved in ethanol or dimethyl surfoxide at 5 mg/mL, then diluted with water", "result": "up to 0.2 mm"},
      {"measurement": "effectiveness as a weight loss aid", "setting": "overweight and obese men", "result": "favorable results"}
    ]}
  ]
}
